Reference: US4273940A, “Bis-(2-benzylaminoethyl)-disulfides” (Abbott Laboratories, priority 1980, dated 1981)
Counter-ions that a name gives are not always drawn. Like-named read-outs stand apart in the source and are kept apart here.

Assays:
[1] = tested on: Type III reactions (reverse passive Arthus lesion); assay: reverse passive Arthus assay (Carter and Krause); Type III reaction; format: in vivo; settings: 50 mg./kg. intraperitoneal, group of four animals
Experimental: Upon intraperitoneal administration to a group of four animals at a dose of 50 mg./kg., the lesion area is inhibited an average of 49% by the compound of Example 1 and 47% by the compound of Example 5.

[2] = tested on: human neutrophils; assay: inhibition of neutrophil locomotion (intrinsic and chemotactic), in vitro agarose test by the method of Nelson et al.; format: cell-based; settings: 2 hours at 37° C., duplicate, four donors; for inhibition at 100 µM: 10^-4 molar; for inhibition at 10 µM: 10^-5 molar
Experimental: The compounds of this invention show marked anti-inflammatory properties as intraperitoneal or oral doses of 25-200 mg./kg. and at intravenous doses of 10 mg./kg. and above. […] The current compounds also are inhibitors of chemotaxis of human neutrophils at molar concentrations of 0.00001-0.0005, causing 50-100% inhibition of intrinsic and chemotactic locomotion of the cells, as established by the method of Nelson et al. in J. Immunol. 115, 1650 (1975).
By carrying out the in vitro test of Nelson et al. referred to above, the neutrophil locomotor response modification caused by the above compounds was established. For this purpose, the compounds were dissolved in both agarose media and the media suspending the cells. The effects of the compounds were determined by comparing te chemotactic and intrinsic locomotion of the cells, both with and without the test compounds after 2 hours of incubation at 37° C. All compounds were evaluated in duplicate against the cells which were from four individual donors.

[3] = tested on: carrageenin induced hind paw edema; assay: modification of the carrageenin induced hind paw edema assay (Winter et al.); anti-inflammatory activity; format: in vivo; settings: for reduction of carrageenin induced swelling (volume): after 3 hours
[4] = read-out: % Inhibition of Locomotion, Chemotactic
[5] = read-out: % Inhibition of Locomotion, Intrinsic

Structure (SMILES) | inhibition of lesion area (average) [1] | inhibition at 100 µM [2, 4] | inhibition at 100 µM [2, 5] | inhibition at 10 µM [2, 4] | inhibition at 10 µM [2, 5] | reduction of carrageenin induced swelling (volume) ([3]; 25 mg./kg. intraperitoneal) | reduction of carrageenin induced swelling (volume) ([3]; 50 mg./kg. intraperitoneal) | reduction of carrageenin induced swelling (volume), acetylsalicylic acid ([3]; 50 mg/kg., corresponding measurement (3 hours))
COc1ccccc1CNCCSSCCNCc1ccccc1OC.Cl.Cl [Example 1, bis(2-methoxybenzylaminoethyl)disulfide dihydrochloride] | 49% | 100% | 100% | 93% | 94% | 14.6% | 29.9% | –
Oc1ccccc1CNCCSSCCNCc1ccccc1O [Example 2, bis(2-hydroxybenzylaminoethyl)disulfide] | – | 100% | 100% | – | – | – | – | –
Cc1cc(C(C)(C)C)cc(CNCCSSCCNCc2cc(C(C)(C)C)cc(C)c2O)c1O [Example 4, bis(2-hydroxy-3-methyl-5-t-butylbenzylaminoethyl)disulfide dihydrochloride] | – | 100% | 95% | 48% | 50% | – | – | –
CC(C)(C)c1cc(Cl)c(O)c(CNCCSSCCNCc2cc(C(C)(C)C)cc(Cl)c2O)c1 [Example 5, bis(2-hydroxy-3-chloro-5-t-butylbenzylaminoethyl)disulfide] | 47% | 100% | 85% | 46% | 24% | – | – | –
Clc1cccc(Cl)c1CNCCSSCCNCc1c(Cl)cccc1Cl [Example 6, bis(2,6-dichlorobenzylaminoethyl)disulfide hydrochloride] | – | 85% | 74% | – | – | – | – | –
CC(=O)Oc1ccccc1C(=O)O [acetylsalicylic acid, reference compound] | – | – | – | – | – | – | – | 15.4%
